{
  "source": "ChEMBL document CHEMBL4507292",
  "about": "(2021)",
  "key": {"[1]": {"biological_target": "Glutamate NMDA receptor (Rattus norvegicus) (UniProt P35439+Q00959+Q00960+Q00961+Q62645+Q8VHN2+Q9R1M7)", "conditions": "Compound concentration 10.0 uM"}, "[2]": {"biological_target": "T1, Epidermal growth factor receptor (Homo sapiens, UniProt P00533)", "T1 sequence (P00533 whole entry)": "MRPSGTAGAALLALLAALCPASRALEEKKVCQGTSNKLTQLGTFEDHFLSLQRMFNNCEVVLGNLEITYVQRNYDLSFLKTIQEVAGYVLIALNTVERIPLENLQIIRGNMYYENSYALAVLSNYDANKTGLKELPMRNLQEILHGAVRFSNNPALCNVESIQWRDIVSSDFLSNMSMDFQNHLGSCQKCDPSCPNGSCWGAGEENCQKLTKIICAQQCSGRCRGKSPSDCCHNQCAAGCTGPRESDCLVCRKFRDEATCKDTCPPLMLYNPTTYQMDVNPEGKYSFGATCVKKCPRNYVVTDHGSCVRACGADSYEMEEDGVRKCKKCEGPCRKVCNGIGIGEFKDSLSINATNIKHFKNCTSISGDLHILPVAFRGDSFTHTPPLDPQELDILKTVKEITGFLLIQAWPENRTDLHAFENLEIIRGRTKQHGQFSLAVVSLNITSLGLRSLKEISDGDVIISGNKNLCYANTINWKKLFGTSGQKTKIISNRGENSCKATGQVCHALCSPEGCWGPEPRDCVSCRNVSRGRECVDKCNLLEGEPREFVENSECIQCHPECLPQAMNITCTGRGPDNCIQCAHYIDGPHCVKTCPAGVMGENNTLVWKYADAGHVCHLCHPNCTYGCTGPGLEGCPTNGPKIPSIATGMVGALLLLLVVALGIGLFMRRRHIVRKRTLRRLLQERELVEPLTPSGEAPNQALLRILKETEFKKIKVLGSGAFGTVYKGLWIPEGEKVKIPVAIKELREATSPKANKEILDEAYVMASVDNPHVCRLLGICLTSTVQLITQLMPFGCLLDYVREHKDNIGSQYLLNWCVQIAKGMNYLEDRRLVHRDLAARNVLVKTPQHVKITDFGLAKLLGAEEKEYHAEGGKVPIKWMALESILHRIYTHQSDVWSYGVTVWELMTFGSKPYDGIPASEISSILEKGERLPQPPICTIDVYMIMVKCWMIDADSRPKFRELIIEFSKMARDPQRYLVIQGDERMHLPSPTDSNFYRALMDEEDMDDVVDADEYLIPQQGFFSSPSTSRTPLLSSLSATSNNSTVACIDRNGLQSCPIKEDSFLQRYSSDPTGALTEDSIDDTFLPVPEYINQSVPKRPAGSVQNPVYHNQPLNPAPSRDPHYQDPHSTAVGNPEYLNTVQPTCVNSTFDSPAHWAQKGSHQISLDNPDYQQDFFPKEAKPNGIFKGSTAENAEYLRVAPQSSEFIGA", "experiment": "Inhibition of Epidermal Growth Factor (EGF) at 10 µM in the Eurofins-Panlabs radioligand binding assay (Eurofins_assay_225510)"}, "[3]": {"biological_target": "T2, Muscarinic acetylcholine receptor M5 (Homo sapiens) (UniProt P08912)", "T2 sequence (whole entry)": "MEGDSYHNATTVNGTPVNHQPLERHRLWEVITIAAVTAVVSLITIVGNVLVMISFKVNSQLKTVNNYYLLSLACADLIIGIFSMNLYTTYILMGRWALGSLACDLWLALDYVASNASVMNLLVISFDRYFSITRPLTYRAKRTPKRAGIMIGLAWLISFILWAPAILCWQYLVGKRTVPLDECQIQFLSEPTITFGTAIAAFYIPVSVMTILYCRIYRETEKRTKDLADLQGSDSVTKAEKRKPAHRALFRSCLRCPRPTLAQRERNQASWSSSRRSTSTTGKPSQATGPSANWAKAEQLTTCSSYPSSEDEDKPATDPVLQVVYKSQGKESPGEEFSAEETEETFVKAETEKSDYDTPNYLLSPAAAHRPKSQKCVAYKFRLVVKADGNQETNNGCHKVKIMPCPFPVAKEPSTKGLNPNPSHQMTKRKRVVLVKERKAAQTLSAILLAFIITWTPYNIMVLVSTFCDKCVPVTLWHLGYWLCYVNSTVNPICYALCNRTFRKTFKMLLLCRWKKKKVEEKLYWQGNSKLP", "experiment": "Inhibition of Muscarinic M5 at 10 µM in the Eurofins-Panlabs radioligand binding assay (Eurofins_assay_253010)", "parameters": "ligand concentration 0.8 nM", "conditions": "Compound concentration 10.0 uM"}, "[4]": {"biological_target": "Muscarinic acetylcholine receptor M3 (Homo sapiens) (UniProt P20309)", "sequence (P20309 whole entry, looked up)": "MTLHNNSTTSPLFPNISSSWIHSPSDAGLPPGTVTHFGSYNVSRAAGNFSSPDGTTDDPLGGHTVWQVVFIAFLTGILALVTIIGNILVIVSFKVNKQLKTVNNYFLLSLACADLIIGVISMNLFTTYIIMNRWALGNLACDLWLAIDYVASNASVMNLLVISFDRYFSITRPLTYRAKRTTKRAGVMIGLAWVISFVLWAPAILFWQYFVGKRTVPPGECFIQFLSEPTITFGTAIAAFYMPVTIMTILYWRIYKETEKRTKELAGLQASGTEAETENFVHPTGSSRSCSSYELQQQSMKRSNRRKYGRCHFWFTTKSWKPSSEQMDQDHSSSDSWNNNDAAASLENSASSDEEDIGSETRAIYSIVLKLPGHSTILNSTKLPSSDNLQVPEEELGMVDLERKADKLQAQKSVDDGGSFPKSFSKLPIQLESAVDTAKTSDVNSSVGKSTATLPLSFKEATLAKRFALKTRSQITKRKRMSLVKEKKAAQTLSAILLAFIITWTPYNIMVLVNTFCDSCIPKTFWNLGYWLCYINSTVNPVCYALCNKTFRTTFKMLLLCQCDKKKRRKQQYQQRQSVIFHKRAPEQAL", "conditions": "Compound concentration 10.0 uM"}, "[5]": {"organism": "Rattus norvegicus", "experiment": "Adrenergic α2, Non-selective Eurofins-Panlabs radioligand binding assay", "format": "protein assay", "conditions": "Compound concentration 10.0 uM"}, "[6]": {"biological_target": "Kappa-type opioid receptor (Homo sapiens, UniProt P41145)", "sequence (P41145 whole entry)": "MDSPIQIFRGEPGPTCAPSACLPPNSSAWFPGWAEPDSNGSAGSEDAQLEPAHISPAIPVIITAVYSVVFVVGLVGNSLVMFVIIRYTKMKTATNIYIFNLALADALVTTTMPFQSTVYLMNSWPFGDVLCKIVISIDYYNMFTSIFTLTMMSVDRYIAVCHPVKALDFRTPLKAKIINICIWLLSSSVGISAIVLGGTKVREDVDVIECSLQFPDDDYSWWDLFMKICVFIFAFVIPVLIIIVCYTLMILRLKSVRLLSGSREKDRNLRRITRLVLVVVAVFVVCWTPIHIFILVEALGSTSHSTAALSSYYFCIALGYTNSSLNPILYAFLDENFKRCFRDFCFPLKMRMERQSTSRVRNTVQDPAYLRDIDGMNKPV"}, "[7]": {"biological_target": "5-hydroxytryptamine receptor 4 (Homo sapiens) (UniProt Q13639)", "experiment": "Inhibition of Serotonin (5-Hydroxytryptamine) 5-HT4 at 10 µM in the Eurofins-Panlabs radioligand binding assay (Eurofins_assay_272000)", "conditions": "Cavia porcellus; Compound concentration 10.0 uM"}, "[8]": {"biological_target": "Voltage-dependent N-type calcium channel subunit alpha-1B (Homo sapiens) (UniProt Q00975)", "experiment": "Inhibition of Calcium Channel N-Type at 10 µM in the Eurofins-Panlabs radioligand binding assay (Eurofins_assay_216000)", "conditions": "Rattus norvegicus; Compound concentration 10.0 uM"}, "[9]": {"biological_target": "T1, Epidermal growth factor receptor", "experiment": "Protein Tyrosine Kinase, EGF Receptor Eurofins-Panlabs enzyme assay", "parameters": "substrate with concentration 10 µg/mL Poly(Glu:Tyr), incubation time 60 min, incubation temperature 25 °C"}, "[10]": {"biological_target": "Beta-3 adrenergic receptor (Homo sapiens, UniProt P13945)", "sequence (P13945 whole entry, looked up)": "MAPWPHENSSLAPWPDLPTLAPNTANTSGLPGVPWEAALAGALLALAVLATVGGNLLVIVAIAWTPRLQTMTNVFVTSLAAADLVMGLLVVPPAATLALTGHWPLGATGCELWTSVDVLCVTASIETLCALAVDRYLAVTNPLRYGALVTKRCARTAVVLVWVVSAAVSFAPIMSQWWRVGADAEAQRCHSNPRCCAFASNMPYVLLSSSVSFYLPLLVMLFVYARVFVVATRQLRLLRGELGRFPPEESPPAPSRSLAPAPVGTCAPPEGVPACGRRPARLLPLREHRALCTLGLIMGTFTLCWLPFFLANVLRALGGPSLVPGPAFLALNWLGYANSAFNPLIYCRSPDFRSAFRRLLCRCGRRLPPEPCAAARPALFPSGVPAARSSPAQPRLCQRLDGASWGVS"}, "[11]": {"biological_target": "Somatostatin receptor type 4 (Homo sapiens, UniProt P31391)", "sequence (P31391 whole entry)": "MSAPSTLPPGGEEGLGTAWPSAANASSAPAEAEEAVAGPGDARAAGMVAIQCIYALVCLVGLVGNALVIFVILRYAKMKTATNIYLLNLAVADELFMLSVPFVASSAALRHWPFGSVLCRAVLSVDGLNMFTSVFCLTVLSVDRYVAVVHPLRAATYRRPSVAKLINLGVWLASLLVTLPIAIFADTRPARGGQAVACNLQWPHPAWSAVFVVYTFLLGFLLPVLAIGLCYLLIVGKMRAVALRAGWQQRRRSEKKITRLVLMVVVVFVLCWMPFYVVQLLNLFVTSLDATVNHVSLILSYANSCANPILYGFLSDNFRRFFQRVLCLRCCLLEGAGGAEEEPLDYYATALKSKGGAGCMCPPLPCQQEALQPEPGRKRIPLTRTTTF", "experiment": "Somatostatin sst4 Eurofins-Panlabs radioligand binding assay", "parameters": "ligand concentration 0.1 nM, non-specific ligand with concentration 1 µM Somatostatin-14, incubation time 45 min, incubation temperature 25 °C"}, "[12]": {"biological_target": "Protein kinase C iota type (Homo sapiens) (UniProt P41743)", "conditions": "Compound concentration 1000.0 nM"}, "[13]": {"biological_target": "Prostaglandin E2 receptor EP1 subtype (Homo sapiens) (UniProt P34995)", "experiment": "Prostanoid EP1 Eurofins-Panlabs radioligand binding assay", "conditions": "Compound concentration 10.0 uM"}, "[14]": {"biological_target": "5-hydroxytryptamine receptor 2A (Homo sapiens) (UniProt P28223)", "sequence (P28223 whole entry)": "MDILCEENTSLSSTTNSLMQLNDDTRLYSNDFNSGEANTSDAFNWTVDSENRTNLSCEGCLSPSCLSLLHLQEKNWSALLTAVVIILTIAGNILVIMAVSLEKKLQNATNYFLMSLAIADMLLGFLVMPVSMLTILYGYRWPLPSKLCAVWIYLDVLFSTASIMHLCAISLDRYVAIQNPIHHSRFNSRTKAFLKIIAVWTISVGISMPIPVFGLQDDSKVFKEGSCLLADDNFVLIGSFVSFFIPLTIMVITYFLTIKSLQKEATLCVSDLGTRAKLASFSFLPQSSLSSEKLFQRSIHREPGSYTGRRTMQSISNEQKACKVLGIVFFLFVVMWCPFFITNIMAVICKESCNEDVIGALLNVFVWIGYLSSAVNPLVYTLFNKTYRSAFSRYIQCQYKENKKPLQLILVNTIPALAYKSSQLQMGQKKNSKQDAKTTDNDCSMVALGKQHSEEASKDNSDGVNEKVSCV", "conditions": "Compound concentration 10.0 uM"}, "[15]": {"biological_target": "Receptor-type tyrosine-protein phosphatase C (Homo sapiens) (UniProt P08575)", "experiment": "Inhibition of Protein Tyrosine Phosphatase, PTPRC (CD45) at 10 µM in the Eurofins-Panlabs enzyme assay (Eurofins_assay_190010)", "conditions": "Compound concentration 10.0 uM"}, "[16]": {"biological_target": "Histamine H4 receptor (Homo sapiens) (UniProt Q9H3N8)", "experiment": "Histamine H4 Eurofins-Panlabs radioligand binding assay", "conditions": "Compound concentration 10.0 uM"}, "[17]": {"biological_target": "Prostacyclin receptor (Homo sapiens) (UniProt P43119)", "experiment": "Prostanoid IP Eurofins-Panlabs radioligand binding assay", "parameters": "ligand concentration 5 nM", "conditions": "Compound concentration 10.0 uM"}, "[18]": {"biological_target": "Platelet-activating factor receptor (Homo sapiens) (UniProt P25105)", "sequence (P25105 whole entry)": "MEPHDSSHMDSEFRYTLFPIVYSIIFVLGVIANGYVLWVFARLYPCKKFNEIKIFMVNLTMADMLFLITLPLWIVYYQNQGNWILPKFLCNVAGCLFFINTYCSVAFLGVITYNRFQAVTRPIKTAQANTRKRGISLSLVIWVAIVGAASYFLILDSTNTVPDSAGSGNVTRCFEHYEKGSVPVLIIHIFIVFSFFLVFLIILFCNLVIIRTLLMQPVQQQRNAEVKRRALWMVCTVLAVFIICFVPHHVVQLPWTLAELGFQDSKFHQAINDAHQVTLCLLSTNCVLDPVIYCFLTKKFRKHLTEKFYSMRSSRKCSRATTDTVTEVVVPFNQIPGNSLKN", "experiment": "Inhibition of Platelet Activating Factor (PAF) at 10 µM in the Eurofins-Panlabs radioligand binding assay (Eurofins_assay_265010)", "conditions": "Compound concentration 10.0 uM"}, "[19]": {"organism": "Homo sapiens"}, "[20]": {"biological_target": "Neuromedin-K receptor (Homo sapiens) (UniProt P29371)", "experiment": "Tachykinin NK3 Eurofins-Panlabs radioligand binding assay", "parameters": "ligand concentration 0.8 nM", "conditions": "Compound concentration 10.0 uM"}, "[21]": {"biological_target": "Mitogen-activated protein kinase 3 (Homo sapiens) (UniProt P27361)", "experiment": "Inhibition of Protein Serine/Threonine Kinase, MAPK3 (ERK1) at 10 µM in the Eurofins-Panlabs enzyme assay (Eurofins_assay_171000)", "conditions": "Compound concentration […]"}, "[22]": {"biological_target": "Adenosine Transporter (Cavia porcellus) (UniProt H0V4R7+H0UUG1+H0V3Z5)", "experiment": "Inhibition of Transporter, Adenosine at compound concentration of 10.0 uM in the Eurofins-Panlabs radioligand binding assay (Eurofins_assay_202000)", "format": "protein assay", "parameters": "ligand concentration 0.5 nM, non-specific ligand with concentration 5 uM Nitrobenzylthioinosine, incubation time 30 min, incubation temperature 25 C", "conditions": "Compound concentration 10.0 uM"}, "[23]": {"biological_target": "Nociceptin receptor (Homo sapiens) (UniProt P41146)", "sequence (P41146 whole entry)": "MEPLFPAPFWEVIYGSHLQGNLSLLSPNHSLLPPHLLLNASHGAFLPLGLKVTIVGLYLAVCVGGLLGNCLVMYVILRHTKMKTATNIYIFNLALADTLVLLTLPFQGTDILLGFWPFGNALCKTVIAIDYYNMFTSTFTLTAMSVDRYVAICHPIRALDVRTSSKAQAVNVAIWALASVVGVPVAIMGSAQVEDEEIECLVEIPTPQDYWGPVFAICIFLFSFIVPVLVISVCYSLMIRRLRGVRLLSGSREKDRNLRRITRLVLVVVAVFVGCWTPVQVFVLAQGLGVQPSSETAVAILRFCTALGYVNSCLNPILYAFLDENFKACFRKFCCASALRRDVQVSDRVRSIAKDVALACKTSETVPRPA", "experiment": "Orphanin ORL1 Eurofins-Panlabs radioligand binding assay", "conditions": "Compound concentration 10.0 uM"}, "[24]": {"organism": "Rattus norvegicus", "experiment": "Inhibition of Glutamate, NMDA, Phencyclidine at 10 µM in the Eurofins-Panlabs radioligand binding assay (Eurofins_assay_233000)", "format": "protein-complex assay"}, "[25]": {"biological_target": "Histamine H2 receptor (Homo sapiens) (UniProt P25021)", "sequence (P25021 whole entry)": "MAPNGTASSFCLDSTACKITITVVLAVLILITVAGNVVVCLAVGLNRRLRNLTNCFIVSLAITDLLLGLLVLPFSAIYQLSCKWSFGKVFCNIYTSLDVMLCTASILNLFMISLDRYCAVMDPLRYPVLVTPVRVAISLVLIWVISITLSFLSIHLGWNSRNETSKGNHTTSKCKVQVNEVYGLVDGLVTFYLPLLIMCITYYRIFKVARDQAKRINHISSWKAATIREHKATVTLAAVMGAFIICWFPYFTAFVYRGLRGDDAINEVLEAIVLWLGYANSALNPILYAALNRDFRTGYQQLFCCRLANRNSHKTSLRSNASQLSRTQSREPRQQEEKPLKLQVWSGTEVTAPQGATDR"}, "[26]": {"biological_target": "C-C chemokine receptor type 1 (Homo sapiens) (UniProt P32246)", "sequence (P32246 whole entry)": "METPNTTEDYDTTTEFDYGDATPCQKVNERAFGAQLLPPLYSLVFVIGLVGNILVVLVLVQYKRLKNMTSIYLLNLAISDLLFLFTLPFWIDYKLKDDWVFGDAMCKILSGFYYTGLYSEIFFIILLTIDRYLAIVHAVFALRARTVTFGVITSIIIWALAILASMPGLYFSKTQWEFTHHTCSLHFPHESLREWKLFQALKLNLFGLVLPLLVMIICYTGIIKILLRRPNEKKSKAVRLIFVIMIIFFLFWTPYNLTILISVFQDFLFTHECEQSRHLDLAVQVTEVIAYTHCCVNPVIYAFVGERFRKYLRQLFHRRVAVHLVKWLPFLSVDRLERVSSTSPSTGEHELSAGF", "experiment": "Chemokine CCR1 Eurofins-Panlabs radioligand binding assay", "conditions": "Compound concentration 10.0 uM"}},
  "data": [
    {"compound": "O=C(O)c1cc(-c2ccc(C3CCNCC3)cc2)c2ccc(-c3ccc(C(F)(F)F)cc3)cc2c1", "note": "[PPTN]", "values": [
      {"measurement": "inhibition", "setting": "[1]", "result": 1, "unit": "%"},
      {"measurement": "inhibition", "setting": "[2]", "result": 35, "unit": "%"},
      {"measurement": "inhibition", "setting": "[3]", "result": 39, "unit": "%"},
      {"measurement": "inhibition", "setting": "[4]", "result": 11, "unit": "%"},
      {"measurement": "inhibition", "setting": "[5]", "result": -1, "unit": "%"},
      {"measurement": "inhibition", "setting": "[6]; Compound concentration 0.1 uM", "result": -1, "unit": "%"},
      {"measurement": "inhibition", "setting": "[6]; Compound concentration 1.0 uM", "result": 1, "unit": "%"},
      {"measurement": "inhibition", "setting": "[6]; Compound concentration 10.0 uM", "result": 63, "unit": "%"},
      {"measurement": "inhibition", "setting": "[7]", "result": 11, "unit": "%"},
      {"measurement": "inhibition", "setting": "[8]", "result": 11, "unit": "%"},
      {"measurement": "IC50", "setting": "[9]", "result": 4.59, "unit": "µM"},
      {"measurement": "inhibition", "setting": "[9]; Compound concentration 0.01 uM", "result": -6, "unit": "%"},
      {"measurement": "inhibition", "setting": "[9]; Compound concentration 0.1 uM", "result": -3, "unit": "%"},
      {"measurement": "inhibition", "setting": "[9]; Compound concentration 1.0 uM", "result": 12, "unit": "%"},
      {"measurement": "inhibition", "setting": "[9]; Compound concentration 10.0 uM", "result": 74, "unit": "%"},
      {"measurement": "inhibition", "setting": "[10]; Compound concentration 0.01 uM", "result": -2, "unit": "%"},
      {"measurement": "inhibition", "setting": "[10]; Compound concentration 0.1 uM", "result": -8, "unit": "%"},
      {"measurement": "inhibition", "setting": "[10]; Compound concentration 1.0 uM", "result": 0, "unit": "%"},
      {"measurement": "inhibition", "setting": "[10]; Compound concentration 10.0 uM", "result": 53, "unit": "%"},
      {"measurement": "IC50", "setting": "[11]", "result": 5.3, "unit": "µM"},
      {"measurement": "inhibition", "setting": "[11]; Compound concentration 0.01 uM", "result": -5, "unit": "%"},
      {"measurement": "inhibition", "setting": "[11]; Compound concentration 0.1 uM", "result": 7, "unit": "%"},
      {"measurement": "inhibition", "setting": "[11]; Compound concentration 1.0 uM", "result": 17, "unit": "%"},
      {"measurement": "inhibition", "setting": "[11]; Compound concentration 10.0 uM", "result": 65, "unit": "%"},
      {"measurement": "residual activity", "setting": "[12]", "result": 82, "unit": "%"},
      {"measurement": "inhibition", "setting": "[13]", "result": 4, "unit": "%"},
      {"measurement": "inhibition", "setting": "[14]", "result": 42, "unit": "%"},
      {"measurement": "inhibition", "setting": "[15]", "result": -7, "unit": "%"},
      {"measurement": "inhibition", "setting": "[16]", "result": 15, "unit": "%"},
      {"measurement": "inhibition", "setting": "[17]", "result": -3, "unit": "%"},
      {"measurement": "inhibition", "setting": "[18]", "result": 4, "unit": "%"},
      {"measurement": "inhibition", "setting": "[19]; Compound concentration 0.01 uM", "result": -3, "unit": "%"},
      {"measurement": "inhibition", "setting": "[19]; Compound concentration 0.1 uM", "result": -3, "unit": "%"},
      {"measurement": "inhibition", "setting": "[19]; Compound concentration 1.0 uM", "result": -8, "unit": "%"},
      {"measurement": "inhibition", "setting": "[19]; Compound concentration 10.0 uM", "result": 67, "unit": "%"},
      {"measurement": "inhibition", "setting": "[20]", "result": 29, "unit": "%"},
      {"measurement": "inhibition", "setting": "[21]", "result": -5, "unit": "%"},
      {"measurement": "inhibition", "setting": "[22]", "result": 9, "unit": "%"},
      {"measurement": "inhibition", "setting": "[23]", "result": 12, "unit": "%"},
      {"measurement": "inhibition", "setting": "[24]", "result": 17, "unit": "%"},
      {"measurement": "inhibition", "setting": "[25]; Compound concentration 0.01 uM", "result": 9, "unit": "%"},
      {"measurement": "inhibition", "setting": "[25]; Compound concentration 0.1 uM", "result": 4, "unit": "%"},
      {"measurement": "inhibition", "setting": "[25]; Compound concentration 1.0 uM", "result": 7, "unit": "%"},
      {"measurement": "inhibition", "setting": "[25]; Compound concentration 10.0 uM", "result": 101, "unit": "%"},
      {"measurement": "inhibition", "setting": "[26]", "result": -9, "unit": "%"}
    ]}
  ]
}
